In assay [1] the target is T1, hTAS1R2 + hTAS1R3 W775A^6.48 (Homo sapiens, UniProt Q7RTX0+Q8TE23, W775A).
T1 construct: expressed in transfected cells; host or cells: HEK293T cells stably expressing G16Gust44
T1 sequence (Q8TE23 20-839): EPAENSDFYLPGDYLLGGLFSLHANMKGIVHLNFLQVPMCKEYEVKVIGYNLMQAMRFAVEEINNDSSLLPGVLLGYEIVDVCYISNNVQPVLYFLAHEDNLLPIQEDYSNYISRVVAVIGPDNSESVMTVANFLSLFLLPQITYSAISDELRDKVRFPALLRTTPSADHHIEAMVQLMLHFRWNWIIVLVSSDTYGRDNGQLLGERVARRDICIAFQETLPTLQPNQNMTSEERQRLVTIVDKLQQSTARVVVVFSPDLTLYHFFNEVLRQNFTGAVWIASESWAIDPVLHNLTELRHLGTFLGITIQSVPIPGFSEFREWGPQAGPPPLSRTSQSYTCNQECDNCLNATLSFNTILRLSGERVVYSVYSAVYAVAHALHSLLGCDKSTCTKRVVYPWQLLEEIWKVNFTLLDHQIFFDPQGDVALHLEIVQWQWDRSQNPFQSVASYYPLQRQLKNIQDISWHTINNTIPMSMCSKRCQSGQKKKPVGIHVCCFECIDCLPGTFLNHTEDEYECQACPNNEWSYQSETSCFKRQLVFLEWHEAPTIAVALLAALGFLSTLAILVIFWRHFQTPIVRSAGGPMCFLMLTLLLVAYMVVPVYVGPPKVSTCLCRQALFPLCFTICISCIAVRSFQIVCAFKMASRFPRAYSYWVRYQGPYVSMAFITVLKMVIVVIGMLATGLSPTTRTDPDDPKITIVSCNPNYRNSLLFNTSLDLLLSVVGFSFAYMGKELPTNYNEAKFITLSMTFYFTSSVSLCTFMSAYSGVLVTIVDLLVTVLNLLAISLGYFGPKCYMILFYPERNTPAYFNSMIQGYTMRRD
T1 sequence (Q7RTX0 21-852 W775A): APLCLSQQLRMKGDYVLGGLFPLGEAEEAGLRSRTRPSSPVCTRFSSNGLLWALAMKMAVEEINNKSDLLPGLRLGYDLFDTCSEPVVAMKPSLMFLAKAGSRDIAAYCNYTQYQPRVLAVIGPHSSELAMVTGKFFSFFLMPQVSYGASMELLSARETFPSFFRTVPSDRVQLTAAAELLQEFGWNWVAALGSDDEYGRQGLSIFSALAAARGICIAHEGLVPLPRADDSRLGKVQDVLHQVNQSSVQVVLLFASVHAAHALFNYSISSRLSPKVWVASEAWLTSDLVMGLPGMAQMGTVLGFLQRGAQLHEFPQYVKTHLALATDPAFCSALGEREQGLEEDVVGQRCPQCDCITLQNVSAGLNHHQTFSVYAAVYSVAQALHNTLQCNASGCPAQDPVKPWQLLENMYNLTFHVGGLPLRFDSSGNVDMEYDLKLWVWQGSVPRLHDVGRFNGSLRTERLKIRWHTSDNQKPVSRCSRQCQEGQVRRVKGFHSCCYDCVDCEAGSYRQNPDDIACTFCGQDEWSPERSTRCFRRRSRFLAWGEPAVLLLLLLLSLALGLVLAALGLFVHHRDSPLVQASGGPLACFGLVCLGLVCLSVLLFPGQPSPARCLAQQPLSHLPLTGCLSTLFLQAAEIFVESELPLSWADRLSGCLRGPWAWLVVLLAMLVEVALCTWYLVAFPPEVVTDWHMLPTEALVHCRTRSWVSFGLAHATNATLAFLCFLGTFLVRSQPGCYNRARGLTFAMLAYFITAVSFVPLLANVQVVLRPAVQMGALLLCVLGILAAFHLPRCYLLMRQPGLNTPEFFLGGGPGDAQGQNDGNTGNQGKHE
Briefly: Calcium response (FLIPR), hTAS1R3 mutant coexpressed with hTAS1R2. Format: cell-based. The note with it: for EC50 / Emax: variant W775A^6.48; for EC50: (>) EC50 not calculable because saturation is not reached; for Emax: read-out: maximal signal (% of wt). How it is done:
(§1) The cDNAs for TAS1Rs tagged at the C-terminus with the herpes simplex virus glycoprotein D (HSV) were transiently transfected into HEK293T cells stably expressing the chimeric G-protein subunit G16Gust44 [44] using Lipofectamine 2000 (Invitrogen, Carlsbad, CA) according to the manufacturer's protocol. 3–4 hours after transfection, DMEM was replaced by low-glucose DMEM supplemented with GlutaMAX and 10% dialyzed FBS (Invitrogen, Carlsbad, CA). 24 h post transfection, cells were loaded for 1 h with the calcium sensitive dye Fluo4-AM (2 μg/ml in DMEM, Molecular Probes, Carlsbad, CA). […] We monitored calcium mobilization following receptor stimulation with sweet tastants by an automated fluorometric imaging plate reader (FLIPR, Molecular Devices, Sunnyvale, CA). Compounds used as stimuli (Sigma-Aldrich, St. Louis, MO; Merck, Whitehouse Station, NJ) were dissolved in C1 solution. All data were collected from at least three independent experiments carried out in duplicate. The obtained calcium signals were corrected for the response of mock transfected cells and normalized to the fluorescence of cells prior to the application of the stimulus using ΔF/F = (F-F0)/F0.

The target of assay [2] is T2, hTAS1R2 + hTAS1R3 C801I^7.39 (Homo sapiens, UniProt Q7RTX0+Q8TE23, C801I).
T2 construct: expressed in transfected cells; host or cells: HEK293T cells stably expressing G16Gust44
T2 sequence (Q7RTX0 21-852 C801I): T1 sequence (Q7RTX0 21-852 W775A) with A755W, C781I
T2 sequence (Q8TE23 20-839): T1 sequence (Q8TE23 20-839)
The description is as above. It counts as cell-based. To be noted: for EC50 / Emax: variant C801I^7.39; for Emax: read-out: maximal signal (% of wt). How it is done:
as §1

Numbering of substitutions follows the chain as printed. Where a SMILES comes first, the peptide text is derived from it.

The term EC50 denotes the concentration that produces a half-maximal response. With `COc1ccc(CCC(=O)c2c(O)cc(O[C@@H]3O[C@H](CO)[C@@H](O)[C@H](O)[C@H]3O[C@@H]3O[C@@H](C)[C@H](O)[C@@H](O)[C@H]3O)cc2O)cc1O` [NHDC, neohesperidin dihydrochalcone], in assay [1], the EC50 is over 3 mM and the Emax was determined as 30 ± 41%. For the same compound, in assay [2], the EC50 was found to be 1.6 ± 0.7 mM and the Emax was 70 ± 13%.

Take `COC(=O)[C@H](Cc1ccccc1)NC(=O)[C@@H](N)CC(=O)O` [aspartame] (HELM PEPTIDE1{D.F.[CO[*:1]]}$$$$V2.0): in assay [1], the EC50 is 1.9 ± 0.2 mM and the Emax turned out to be 20 ± 30%. In assay [2], the half-maximal effective concentration (EC50) amounted to 1.2 ± 0.5 mM and the Emax was determined as 50 ± 9%.

Regarding `O=S(=O)(O)NC1CCCCC1` [cyclamate], the receptor activation result in assay [1] (mutant W775A^6.48, any tested concentration) was “could not be activated at any tested concentration”; in assay [2] (mutant C801I^7.39, any tested concentration), “could not be activated at any tested concentration”.

The values above are taken from article PMC2099433, “The binding site for neohesperidin dihydrochalcone at the human sweet taste receptor” (BMC Structural Biology, 2007).
